# Assay results as given in US5977133A, “Pyridone antibiotic with improved safety profile” (priority 1998, dated 1999).
# Structures can show the parent of a compound that is named as a salt.
# Test system: bacteria
# Assay: In vitro antibacterial activity (overall statement)
# Type: cell-based
# Conditions: ciprofloxacin resistant strains
structure (smiles),measurement,value
"CN[C@@H]1CN(c2c(F)cn3c(=O)c(C(=O)O)cc(C4CC4)c3c2C)CC12CC2 [Example 1, 1-cyclopropyl-8-(7(S)-N-methylamino-5-azaspiro[2.4]heptyl)-7-fluoro-9-methyl-4-oxo-4H-guinolizine-3-carboxylic acid hydrochloride]",activity against ciprofloxacin resistant strains in words,highly active against ciprofloxacin resistant strains
